In patent US20250114356A1, “INDAZOLE BASED COMPOUNDS AND ASSOCIATED METHODS OF USE” (Arvinas Operations, Inc., priority 2020, published 2025):

What was measured:
G2019S LRRK2 = target: T1, G2019S LRRK2 (Homo sapiens, UniProt Q5S007, G2019S); test: LRRK2 degradation assay, G2019S LRRK2-HiBit expressed from plasmid in HEK293 cells; format: cell-based; details: HEK293 cells transfected with HiBit-tagged G2019S LRRK2, 24 hours compound incubation
T1 construct: expressed in transfected cells; host or cells: HEK293 (ATCC CRL-1573), transient transfection, ubiquitin promoter
T1 sequence (Q5S007 whole entry G2019S): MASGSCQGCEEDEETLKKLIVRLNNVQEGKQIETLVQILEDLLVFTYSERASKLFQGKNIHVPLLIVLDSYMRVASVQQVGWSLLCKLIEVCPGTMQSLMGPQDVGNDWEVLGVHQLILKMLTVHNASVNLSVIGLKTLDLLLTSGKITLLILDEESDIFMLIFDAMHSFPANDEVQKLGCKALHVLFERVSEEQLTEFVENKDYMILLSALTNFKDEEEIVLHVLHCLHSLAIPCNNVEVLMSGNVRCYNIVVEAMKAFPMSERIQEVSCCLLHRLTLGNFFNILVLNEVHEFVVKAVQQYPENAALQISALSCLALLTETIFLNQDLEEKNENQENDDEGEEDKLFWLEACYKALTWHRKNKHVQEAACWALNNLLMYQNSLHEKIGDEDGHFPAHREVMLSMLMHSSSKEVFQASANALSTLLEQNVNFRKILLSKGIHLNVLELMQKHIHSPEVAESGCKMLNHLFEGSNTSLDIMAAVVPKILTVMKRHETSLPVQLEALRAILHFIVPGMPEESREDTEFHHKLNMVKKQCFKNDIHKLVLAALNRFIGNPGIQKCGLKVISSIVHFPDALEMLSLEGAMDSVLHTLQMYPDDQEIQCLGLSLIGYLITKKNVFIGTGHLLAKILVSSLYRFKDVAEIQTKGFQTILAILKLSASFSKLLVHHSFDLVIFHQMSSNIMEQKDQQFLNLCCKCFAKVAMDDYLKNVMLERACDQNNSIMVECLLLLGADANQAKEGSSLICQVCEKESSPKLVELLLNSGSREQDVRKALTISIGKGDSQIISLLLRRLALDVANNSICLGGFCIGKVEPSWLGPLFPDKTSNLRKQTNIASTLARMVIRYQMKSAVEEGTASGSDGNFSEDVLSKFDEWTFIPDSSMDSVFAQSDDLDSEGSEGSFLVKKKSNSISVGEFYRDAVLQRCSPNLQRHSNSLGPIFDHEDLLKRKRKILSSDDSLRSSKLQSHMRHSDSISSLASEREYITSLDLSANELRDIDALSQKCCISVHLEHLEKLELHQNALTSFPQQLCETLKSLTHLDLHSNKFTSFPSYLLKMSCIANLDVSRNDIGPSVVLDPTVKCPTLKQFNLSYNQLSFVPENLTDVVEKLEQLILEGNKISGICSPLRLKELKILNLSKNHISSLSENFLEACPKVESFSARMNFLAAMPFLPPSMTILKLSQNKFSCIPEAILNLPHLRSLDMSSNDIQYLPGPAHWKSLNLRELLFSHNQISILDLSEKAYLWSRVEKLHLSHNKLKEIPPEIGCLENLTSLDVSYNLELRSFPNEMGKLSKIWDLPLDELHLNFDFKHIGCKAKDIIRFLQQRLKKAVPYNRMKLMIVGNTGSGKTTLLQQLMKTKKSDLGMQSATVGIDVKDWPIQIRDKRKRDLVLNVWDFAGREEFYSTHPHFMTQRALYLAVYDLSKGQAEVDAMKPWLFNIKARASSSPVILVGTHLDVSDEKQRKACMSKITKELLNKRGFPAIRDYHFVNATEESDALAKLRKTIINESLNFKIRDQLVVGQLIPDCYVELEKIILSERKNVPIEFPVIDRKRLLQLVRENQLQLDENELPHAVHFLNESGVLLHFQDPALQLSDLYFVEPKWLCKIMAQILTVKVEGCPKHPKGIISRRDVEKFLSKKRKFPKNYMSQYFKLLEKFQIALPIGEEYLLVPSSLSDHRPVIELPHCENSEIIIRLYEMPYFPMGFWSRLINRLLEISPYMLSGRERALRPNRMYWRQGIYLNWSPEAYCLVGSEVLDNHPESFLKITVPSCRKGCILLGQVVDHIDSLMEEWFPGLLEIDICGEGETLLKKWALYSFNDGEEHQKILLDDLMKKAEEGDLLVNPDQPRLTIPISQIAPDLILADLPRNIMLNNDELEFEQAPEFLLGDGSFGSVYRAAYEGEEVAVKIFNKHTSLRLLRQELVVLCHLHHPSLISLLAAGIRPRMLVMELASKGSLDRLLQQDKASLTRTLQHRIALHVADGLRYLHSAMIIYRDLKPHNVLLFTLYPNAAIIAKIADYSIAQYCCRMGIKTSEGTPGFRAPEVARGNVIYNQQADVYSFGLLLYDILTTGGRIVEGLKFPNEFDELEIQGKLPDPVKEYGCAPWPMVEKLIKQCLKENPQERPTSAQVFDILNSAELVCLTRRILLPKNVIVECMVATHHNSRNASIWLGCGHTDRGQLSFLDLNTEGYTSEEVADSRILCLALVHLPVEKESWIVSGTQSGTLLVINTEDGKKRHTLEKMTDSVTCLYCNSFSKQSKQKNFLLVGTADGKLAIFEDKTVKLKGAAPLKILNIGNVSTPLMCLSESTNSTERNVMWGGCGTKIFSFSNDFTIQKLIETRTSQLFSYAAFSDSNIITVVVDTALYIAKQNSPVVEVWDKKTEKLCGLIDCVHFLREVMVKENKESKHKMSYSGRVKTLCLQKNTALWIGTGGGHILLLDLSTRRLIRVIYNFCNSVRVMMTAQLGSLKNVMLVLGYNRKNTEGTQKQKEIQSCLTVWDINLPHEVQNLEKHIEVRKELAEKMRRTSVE
Description: (§1) The assay measures the degradation of wildtype and G2019S LRRK2 tagged with a HiBit tag on the C-terminus of the protein that was expressed from a mammalian expression vector, driven by the ubiquitin promoter in HEK293 cells. Each compound dose-response was repeated on two separate days, on three separate plates each day.
(§2) Plasmid Preparation. Transfection mixes were assembled as follows and incubated for 30 minutes at room temperature. In a 15 mL tube, 5.25 mL Opti-MEM (no additions) was mixed with 17 μL Firefly Luciferase plasmid at 1 μg/μL and 158 μL WT plasmid DNA at 1 μg/μL (175 μg total DNA) were mixed by flicking. In a new 15 mL tube, 5.25 mL OptiMEM was mixed with 17 μL Firefly Luciferase plasmid at 1 μg/μL and 158 μL G2019S plasmid DNA at 1 μg/μL (175 μg total DNA) were mixed by flicking. X-tremeGene HP was mixed thoroughly using a vortex. Next, 175 μL was added to each tube and flicked to mix. Both tubes were left to incubate for 30 minutes at room temperature.
(§3) While the transfection mixes were incubating, HEK293 cells (acquired from ATCC; ATCC CRL-1573) were harvested with trypsin. Once cells are detached, the cells were resuspended in 12 mL OptiMEM+5% FBS and transferred to a 50 mL tube. The cells were mixed well and counted. Using OptiMEM+5% FBS, the cells were diluted in two 250 mL conical tubes at 0.71×10^6 cells/mL in 70 mL. One tube was labeled “WT” and the other “G2019S”. The WT and G2019S transfection mixes were added dropwise to the corresponding 250 mL tubes. The tubes were mixed first by pipetting then by swirling. The tubes were incubated at room temperature for at least 5 minutes.
(§4) Each tube was swirled before dispensing and after every three plates. Seventy microliters of cells were dispensed with WT or G2019S DNA to seven plates each. Three plates of each were tested with compound plate one (preparation described below) and three plates of each were tested with compound plate two (preparation described below). The first plate from each set served as a “prime” plate and was not used to test compounds. Each plate was incubated in the hood for 10 minutes before placing in the 37° C. incubator for 24 hours.
(§5) Preparation of Compound and Assay Plates. Two compound plates were made using 96 well polypropylene plates. Compounds were made up at 10 mM and were diluted to 1 mM in 30 μL. Each dose response curve included a well of DMSO, as a negative control and for normalization, and a well of 0.5 μM of Exemplary Compound 4 as a positive control. In addition to seven test compounds, each plate also included a dose response of Exemplary Compound 4. The compound plates were spun down along at 1200 rpm for 2 minutes.
(§6) The two compound plates were then mixed and 2 μL was diluted in intermediate plates having 248 μL of Opti-Mem in each well. Next, 10 μL diluted compounds from the intermediate plates were added to each test plate (three WT and three G2019S plates per compound plate for a total of 12 assay plates). The plates were incubated for 24 hours at 37° C.
(§7) All assay plates and all Nano-Glo Dual-Luciferase Reporter Assay System components (except for the DLR substrate) were equilibrated to room temperature. Next, the luciferase buffer was mixed with the lyophilized amber bottle until fully dissolved, and 75 μL of the luciferase mixture was added to each well of each assay plate. The assay plates were incubated for 10 minutes at room temperature with shaking for at least 5 minutes, and then read on a plate reader.
(§8) Developing Plates and Analyzing Data. One milliliter of DLR substrate and 1 mL LgBiT Protein were added to the Stop and Glo buffer, and 75 μL of the mixture was added to each well of each plate. Optically clear seals were added to each plate and each plate was incubated for 20 minutes with shaking for at least 10 minutes, and then read on a plate reader. […]

wildtype LRRK2 = target: T2, wildtype LRRK2 (Homo sapiens, UniProt Q5S007); test: LRRK2 degradation assay, wildtype LRRK2-HiBit expressed from plasmid in HEK293 cells; format: cell-based; details: HEK293 cells transfected with HiBit-tagged wildtype LRRK2, 24 hours compound incubation; for Dmax: read-out: **WT Dmax (%); for DC50: read-out: *WT DC50
T2 construct: expressed in transfected cells; host or cells: HEK293 (ATCC CRL-1573), transient transfection, ubiquitin promoter
T2 sequence (Q5S007 whole entry): as the sequence (Q5S007 whole entry G2019S) above, with S2019G counted along it
Description: as §1, §2, §3, §4, §5, §6, §7, §8

Structure (SMILES) | DC50 (G2019S LRRK2) [nM] | Dmax (G2019S LRRK2) [%] | Dmax (wildtype LRRK2) [%] | DC50 (wildtype LRRK2) [nM]
CC(C)Oc1ccc2[nH]nc(-c3cc(N4CCN(CCCN(C)CCCN5CCN(c6ccc7c(c6)C(=O)N(C6CCC(=O)NC6=O)C7=O)CC5)[C@@H](C)C4)ncn3)c2c1 (stereo partly drawn) [compound 38, 2-(2,6-dioxopiperidin-3-yl)-5-(4-{3-[methyl({3-[(2S)-2-methyl-4-{6-[5-(propan-2-yloxy)-1H-indazol-3-yl]pyrimidin-4-yl}piperazin-1-yl]propyl})amino]propyl}piperazin-1-yl)-2,3-dihydro-1H-isoindole-1,3-dione] | ≥ 100 | ≥ 70 | ≥ 70 | 50 to 100
CC(C)Oc1ccc2[nH]nc(-c3cc(N4CCN(CCOCCOCCOCCOc5ccc6c(c5)C(=O)N(C5CCC(=O)NC5=O)C6=O)[C@@H](C)C4)ncn3)c2c1 (stereo partly drawn) [compound 9, 2-(2,6-dioxopiperidin-3-yl)-5-{2-[2-(2-{2-[(2S)-2-methyl-4-{6-[5-(propan-2-yloxy)-1H-indazol-3-yl]pyrimidin-4-yl}piperazin-1-yl]ethoxy}ethoxy)ethoxy]ethoxy}-2,3-dihydro-1H-isoindole-1,3-dione] | ≥ 100 | < 50 | < 50 | ≥ 100
CC(C)Oc1ccc2[nH]nc(-c3cc(N4CCN(CCN5CC(CN6CCN(c7ccc8c(c7)C(=O)N(C7CCC(=O)NC7=O)C8=O)CC6)C5)CC4)ncn3)c2c1 (stereo not drawn) [compound 45, 2-(2,6-dioxopiperidin-3-yl)-5-(4-((1-(2-(4-(6-(5-isopropoxy-1H-indazol-3-yl)pyrimidin-4-yl)piperazin-1-yl)ethyl)azetidin-3-yl)methyl)piperazin-1-yl)isoindoline-1,3-dione] | ≥ 100 | < 50 | < 50 | 10 to 50
CC(C)Oc1ccc2[nH]nc(-c3cc(N4CCN(CCOCCC#CCN5CCN(c6ccc7c(c6)C(=O)N(C6CCC(=O)NC6=O)C7=O)CC5)[C@@H](C)C4)ncn3)c2c1 (stereo partly drawn) [compound 34, 2-(2,6-dioxopiperidin-3-yl)-5-[4-(5-{2-[(2S)-2-methyl-4-{6-[5-(propan-2-yloxy)-1H-indazol-3-yl]pyrimidin-4-yl}piperazin-1-yl]ethoxy}pent-2-yn-1-yl)piperazin-1-yl]-2,3-dihydro-1H-isoindole-1,3-dione] | ≥ 100 | 50 to 70 | ≥ 70 | 50 to 100
CC(C)Oc1cc2c(-c3cc(N4CCN(CCOCCOCCOCCOc5ccc6c(c5)C(=O)N(C5CCC(=O)NC5=O)C6=O)[C@@H](C)C4)ncn3)n[nH]c2cc1F (stereo partly drawn) [compound 15, 2-(2,6-dioxopiperidin-3-yl)-5-{2-[2-(2-{2-[(2S)-4-{6-[6-fluoro-5-(propan-2-yloxy)-1H-indazol-3-yl]pyrimidin-4-yl}-2-methylpiperazin-1-yl]ethoxy}ethoxy)ethoxy]ethoxy}-2,3-dihydro-1H-isoindole-1,3-dione] | ≥ 100 | < 50 | < 50 | ≥ 100

Now those with a lower DC50 (G2019S LRRK2), led by results:

DC50 (G2019S LRRK2) [nM] | Dmax (G2019S LRRK2) [%] | Dmax (wildtype LRRK2) [%] | DC50 (wildtype LRRK2) [nM] | Structure (SMILES)
< 10 | 50 to 70 | ≥ 70 | < 10 | C[C@@H]1CN(c2cc(-c3n[nH]c4ccc(OC5(C)CC5)cc34)ncn2)C[C@H](C)N1CCOCCN1CCN(c2ccc3c(c2)C(=O)N(C2CCC(=O)NC2=O)C3=O)CC1 (stereo partly drawn) [compound 21, 5-[4-(2-{2-[(2R,6S)-2,6-dimethyl-4-{6-[5-(1-methylcyclopropoxy)-1H-indazol-3-yl]pyrimidin-4-yl}piperazin-1-yl]ethoxy}ethyl)piperazin-1-yl]-2-(2,6-dioxopiperidin-3-yl)-2,3-dihydro-1H-isoindole-1,3-dione]
< 10 | ≥ 70 | ≥ 70 | < 10 | CC(C)Oc1ccc2[nH]nc(-c3cc(N4CCN(CCN5CCC(CN6CCN(c7ccc8c(c7)C(=O)N(C7CCC(=O)NC7=O)C8=O)CC6)CC5)[C@@H](C)C4)ncn3)c2c1 (stereo partly drawn) [compound 30, 2-(2,6-dioxopiperidin-3-yl)-5-{4-[(1-{2-[(2S)-2-methyl-4-{6-[5-(propan-2-yloxy)-1H-indazol-3-yl]pyrimidin-4-yl}piperazin-1-yl]ethyl}piperidin-4-yl)methyl]piperazin-1-yl}-2,3-dihydro-1H-isoindole-1,3-dione]
< 10 | ≥ 70 | ≥ 70 | < 10 | C[C@H]1CN(c2cc(-c3n[nH]c4ccc(OC5(C)CC5)cc34)ncn2)CCN1CCN1CCC(CN2CCN(c3ccc4c(c3)C(=O)N(C3CCC(=O)NC3=O)C4=O)CC2)CC1 (stereo partly drawn) [compound 29, 2-(2,6-dioxopiperidin-3-yl)-5-{4-[(1-{2-[(2S)-2-methyl-4-{6-[5-(1-methylcyclopropoxy)-1H-indazol-3-yl]pyrimidin-4-yl}piperazin-1-yl]ethyl}piperidin-4-yl)methyl]piperazin-1-yl}-2,3-dihydro-1H-isoindole-1,3-dione]
10 to 50 | 50 to 70 | ≥ 70 | < 10 | C[C@H]1CN(c2cc(-c3n[nH]c4ccc(OC5(C)CC5)cc34)ncn2)CCN1CCOCCOCCOc1ccc2c(c1)C(=O)N(C1CCC(=O)NC1=O)C2=O (stereo partly drawn) [compound 3, 2-(2,6-dioxopiperidin-3-yl)-5-[2-(2-{2-[(2S)-2-methyl-4-{6-[5-(1-methylcyclopropoxy)-1H-indazol-3-yl]pyrimidin-4-yl}piperazin-1-yl]ethoxy}ethoxy)ethoxy]-2,3-dihydro-1H-isoindole-1,3-dione]
< 10 | ≥ 70 | ≥ 70 | < 10 | CC1(Oc2ccc3[nH]nc(-c4cc(N5CCO[C@@H](CCOCCOCCOCCOc6ccc7c(c6)C(=O)N(C6CCC(=O)NC6=O)C7=O)C5)ncn4)c3c2)CC1 (stereo partly drawn) [compound 18, 2-(2,6-dioxopiperidin-3-yl)-5-{2-[2-(2-{2-[(2S)-4-{6-[5-(1-methylcyclopropoxy)-1H-indazol-3-yl]pyrimidin-4-yl}morpholin-2-yl]ethoxy}ethoxy)ethoxy]ethoxy}-2,3-dihydro-1H-isoindole-1,3-dione]
10 to 50 | ≥ 70 | ≥ 70 | 10 to 50 | CC(C)Oc1ccc2[nH]nc(-c3cc(N4CCN(CCN5CCN(CC6CCN(c7ccc8c(c7)C(=O)N(C7CCC(=O)NC7=O)C8=O)CC6)CC5)[C@@H](C)C4)ncn3)c2c1 (stereo partly drawn) [compound 26, 2-(2,6-dioxopiperidin-3-yl)-5-{4-[(4-{2-[(2S)-2-methyl-4-{6-[5-(propan-2-yloxy)-1H-indazol-3-yl]pyrimidin-4-yl}piperazin-1-yl]ethyl}piperazin-1-yl)methyl]piperidin-1-yl}-2,3-dihydro-1H-isoindole-1,3-dione]
10 to 50 | 50 to 70 | 50 to 70 | 10 to 50 | CC(C)Oc1ccc2[nH]nc(-c3cc(N4CCN(CCN5CCC(CC6CCN(c7ccc8c(c7)C(=O)N(C7CCC(=O)NC7=O)C8=O)CC6)CC5)CC4)ncn3)c2c1 (stereo not drawn) [compound 51, 2-(2,6-dioxopiperidin-3-yl)-5-(4-((1-(2-(4-(6-(5-isopropoxy-1H-indazol-3-yl)pyrimidin-4-yl)piperazin-1-yl)ethyl)piperidin-4-yl)methyl)piperidin-1-yl)isoindoline-1,3-dione]
